Source: patent US20250361264A1, “PROTEIN MODIFYING REAGENT” (CANON KABUSHIKI KAISHA, priority 2023, published 2025)

Tests used:
[1] = target: T1, silk fibroin powder (Bombyx mori, UniProt P05790); assay: Evaluation of adsorptivity of groups containing aromatic rings to proteins having β-sheet structures; assay type: binding; conditions: for Adsorption rate to fibroin (%): 0.02 mM, 0.15 mL methanol solution on 10 mg silk fibroin powder, dried, 0.15 mL water, 5 minutes stirring, supernatant absorbance; for Adsorptivity: class of adsorption rate to fibroin
T1 construct: purchased Sigma-Aldrich
Procedure: After distillation of methanol by air-drying, 0.15 mL of water was added. After stirring for 5 minutes, the supernatant was collected. The adsorption rate of groups containing aromatic rings to fibroin was calculated from the concentration of groups containing aromatic rings in the collected supernatant liquid and the change in concentration by absorbance measurement, the adsorptivity of groups containing aromatic rings to proteins having β-sheet structures was evaluated using the following criteria.
“Evaluation A” and “Evaluation B” indicate the level at which groups containing aromatic rings adsorb strongly to proteins having a β-sheet structure, and “Evaluation C” indicates the low adsorptivity of groups containing aromatic rings.
• A: 90% or more • B: 60% or more but less than 90% • C: Less than 60%

[2] = target: T2, fibroin sheet (Bombyx mori, UniProt P05790); assay: Color intensity of modified fibroin sheet after peroxidase DAB staining; assay type: biochemical; conditions: fibroin sheet adsorbed from 0.3 mg/mL solution; DAB staining solution 1.5 μL, 5 minutes; ImageJ; average of five sheets
T2 construct: purchased Sigma-Aldrich
Procedure: To 0.18 g of silk fibroin powder (manufactured by Sigma-Aldrich), 3.82 g of hexafluoro--2 propanol (HFIP) was added, and the mixture was stirred at room temperature using a mix rotor. Thereafter, filtration was performed using a filter (Millex-AP, Millipore) to obtain a 4.5 wt % fibroin solution. Fibroin solution (0.1 mL) was used to prepare and collect a sheet of fibroin fibers on an aluminum dish using an electrospinning device (NANON-03, MECC).
After methanol was added to the collected sheet, methanol was removed and dried overnight. The measurement of the weight of the fibroin sheet cut into 20 mm×40 mm size confirmed that it was 1.25 μg/mm^2 fibroin sheet. […]
To the fibroin sheet modified with Compound 1 obtained in Manufacturing Example 2, a staining solution (1.5 μL) of the peroxidase staining DAB kit (Brown Stain) (manufactured by Nacalai Tesque) was added dropwise and allowed to stand for 5 minutes in a wet box. […] After drying the sheet, the sheet was read by a scanner to acquire image data. The obtained image data were measured for color intensity using ImageJ software. Five sheets were made, and the same evaluation was carried out, and the average value of the color intensity (Color Intensity, hereinafter CI value) was calculated. The calculated CI value was 59.8.

Compound	Adsorption rate to fibroin (%) [1]	Adsorptivity [1]	CI value (average color intensity) [2]
O=C(O)CCNc1ccc(-c2nc3ccccc3s2)cc1 [Compound 2]	79%	B (60% or more but less than 90%)	–
O=C(O)CCOc1ccccc1-c1nc2ccccc2s1 [Compound 4]	71%	B (60% or more but less than 90%)	–
Compound 1: Thioflavin T acid bound to horseradish peroxidase (HRP); one Thioflavin T acid molecule per HRP molecule	–	–	59.8
HRP: horseradish peroxidase (manufactured by Sigma-Aldrich), unmodified comparison	–	–	39.5
Thioflavin T acid [reference compound]	91%	A (90% or more)	–
